Test results reported in ChEMBL document CHEMBL1201862, “PubChem BioAssay data set” (2004).
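Growth conditions: 96-well plates. Treatment: test compound, 48 hours, 5 concentrations. Analysis: linear interpolation between bracketing concentrations; unreached endpoints set to highest concentration. The concentration for 50% growth inhibition is given as GI50.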 The source made the active and inactive calls. Cut-off read from the data, not from the text of the source: active = GI50 up to about 1.1 µM and inactive = higher. Where a SMILES comes first, the peptide text is derived from it. [ ]: non-standard residue; d: D form. The star is where a group is joined. ξ: configuration not given here. X4 = COc1ccc(C(N*)c2ccc(OC)cc2)cc1; NMeF = CN[C@@H](Cc1ccccc1)C(=O)O; NMeD = CN[C@@H](CC(=O)O)C(=O)O; NMeV = CN[C@H](C(=O)O)C(C)C; ξNMeV = CNC(C(=O)O)C(C)C; Boc = CC(C)(C)OC(=O)*; ξNMeA = CNC(C)C(=O)O; ξV = CC(C)C(N)C(=O)O

Experiments:
Assay in all cases: inhibition of tumour cell growth, NCI panel, 48 h
A498 = test system: A498
A549 = test system: A549
CCRF-CEM = test system: CCRF-CEM
EKVX = test system: EKVX
HCC 2998 = test system: HCC 2998
HCT-15 = test system: HCT-15
KM12 = test system: KM12
MOLT-4 = test system: MOLT-4
Malme-3M = test system: Malme-3M
NCI-H226 = test system: NCI-H226
NCI-H460 = test system: NCI-H460
NCI/ADR-RES = test system: NCI/ADR-RES
SF-268 = test system: SF-268
SF-539 = test system: SF-539
SK-MEL-28 = test system: SK-MEL-28
SNB-19 = test system: SNB-19
SR = test system: SR
TK-10 = test system: TK-10
U-251 = test system: U-251
UACC-257 = test system: UACC-257

SMILES	GI50 (A498)	GI50 (A549)	GI50 (CCRF-CEM)	GI50 (EKVX)	GI50 (HCC 2998)	GI50 (HCT-15)	GI50 (KM12)	GI50 (MOLT-4)	GI50 (Malme-3M)	GI50 (NCI-H226)	GI50 (NCI-H460)	GI50 (NCI/ADR-RES)	GI50 (SF-268)	GI50 (SF-539)	GI50 (SK-MEL-28)	GI50 (SNB-19)	GI50 (SR)	GI50 (TK-10)	GI50 (U-251)	GI50 (UACC-257)
CC(C)(C)COC1C2(OCCO2)C2CCC1(C)C2(C)C (configuration not stated)	> 100 µM (inactive)	23.6 µM (inactive)	18.8 µM (inactive)	33.7 µM (inactive)	37.5 µM (inactive)	22.4 µM	20 µM (inactive)	21.4 µM (inactive)	29 µM (inactive)	27.4 µM (inactive)	33.7 µM (inactive)	42 µM (inactive)	50.2 µM (inactive)	37.8 µM (inactive)	87.1 µM (inactive)	20.6 µM (inactive)	21.6 µM (inactive)	> 100 µM (inactive)	18 µM (inactive)	24.9 µM (inactive)
O=C1C(c2ccccc2)=C(c2ccccc2)C1(Cl)Cl	5.21 µM (inactive)	11.4 µM (inactive)	1.01 µM (active)	5.04 µM (inactive)	5.19 µM (inactive)	2.07 µM	6.65 µM (inactive)	2.55 µM (inactive)	2.86 µM (inactive)	3.07 µM (inactive)	5.9 µM (inactive)	3.2 µM (inactive)	2.99 µM (inactive)	3.05 µM (inactive)	3.78 µM (inactive)	16.7 µM (inactive)	2.04 µM (inactive)	0.667 µM (active)	2.84 µM (inactive)	2.71 µM (inactive)
O=C1NC(=O)C(c2c[nH]c3cc(Br)ccc23)=C1c1cn(C(c2ccccc2)(c2ccccc2)c2ccccc2)cn1	16.8 µM (inactive)	7.24 µM (inactive)	5.45 µM (inactive)	7.82 µM (inactive)	12.6 µM (inactive)	12.8 µM	9.23 µM (inactive)	4.41 µM (inactive)	19.5 µM (inactive)	3.38 µM (inactive)	11.1 µM (inactive)	27.2 µM (inactive)	13.8 µM (inactive)	14.8 µM (inactive)	27.2 µM (inactive)	23.9 µM (inactive)	6.64 µM (inactive)	16.2 µM (inactive)	10.7 µM (inactive)	18.5 µM (inactive)
CC(N)(Cc1c[nH]c2ccccc12)C(=O)O (configuration not stated)	> 100 µM (inactive)	> 100 µM (inactive)	> 100 µM (inactive)	> 100 µM (inactive)	> 100 µM (inactive)	> 100 µM	> 100 µM (inactive)	> 100 µM (inactive)	> 100 µM (inactive)	> 100 µM (inactive)	> 100 µM (inactive)	> 100 µM (inactive)	> 100 µM (inactive)	> 100 µM (inactive)	> 100 µM (inactive)	> 100 µM (inactive)	> 100 µM (inactive)	> 100 µM (inactive)	> 100 µM (inactive)	> 100 µM (inactive)
COc1ccc(C(NC(=O)C[C@@H](C(=O)N(C)C(C)C(=O)O)N(C)C(=O)[C@@H]2CCCN2C(=O)[C@H](C(C)C)N(C)C(=O)C(C(C)C)N(C)C(=O)[C@H](Cc2ccccc2)N(C)C(=O)C(NC(=O)OC(C)(C)C)C(C)C)c2ccc(OC)cc2)cc1 (some centres not stated) (Boc-[ξV][NMeF][ξNMeV][NMeV]P[NMeD](X4)[ξNMeA]-OH)	> 37.5 µM (inactive)	> 37.5 µM (inactive)	7.43 µM (inactive)	25.6 µM (inactive)	6.76 µM (inactive)	21.9 µM	7.18 µM (inactive)	8.39 µM (inactive)	14.4 µM (inactive)	7.64 µM (inactive)	24.5 µM (inactive)	> 37.5 µM (inactive)	7.53 µM (inactive)	7.94 µM (inactive)	7.62 µM (inactive)	22.4 µM (inactive)	15.6 µM (inactive)	23.7 µM (inactive)	9.75 µM (inactive)	9.75 µM (inactive)
CCOC(=O)/C(C(N)=O)=C(O)/C(O)=C(\Br)C(=O)c1ccccc1	> 100 µM (inactive)	20.4 µM (inactive)	0.979 µM (active)	23.9 µM (inactive)	22 µM (inactive)	18.2 µM	18.1 µM (inactive)	2.99 µM (inactive)	15.1 µM (inactive)	19.5 µM (inactive)	24.8 µM (inactive)	25.8 µM (inactive)	19.5 µM (inactive)	18.5 µM (inactive)	17.9 µM (inactive)	47 µM (inactive)	3.68 µM (inactive)	19 µM (inactive)	18.2 µM (inactive)	17.9 µM (inactive)
Cc1c(CNc2ccc(C(=O)NC(CC(=O)O)C(=O)O)cc2)ccc2nc(N)nc(N)c12 (configuration not stated)	0.219 µM (active)	< 0.01 µM (active)	< 0.01 µM (active)	> 100 µM (inactive)	< 0.01 µM (active)	< 0.01 µM	0.0743 µM (active)	< 0.0157 µM (active)	31 µM (inactive)	> 100 µM (inactive)	< 0.01 µM (active)	< 0.01 µM (active)	< 0.01 µM (active)	0.0127 µM (active)	1.7 µM (inactive)	–	< 0.0296 µM (active)	1.86 µM (inactive)	0.0546 µM (active)	0.605 µM (active)
CCOc1cc(C2SCC(=O)N2c2nc3cc4sc(N5C(=O)CSC5c5ccc(O)c(OCC)c5)nc4cc3s2)ccc1O (configuration not stated)	48.6 µM (inactive)	6.98 µM (inactive)	4.16 µM (inactive)	67.3 µM (inactive)	> 100 µM (inactive)	8.47 µM	45.3 µM (inactive)	4.61 µM (inactive)	> 68.9 µM (inactive)	23.6 µM (inactive)	2.37 µM (inactive)	8.2 µM (inactive)	> 68.2 µM (inactive)	15.7 µM (inactive)	> 100 µM (inactive)	41.3 µM (inactive)	5.85 µM (inactive)	> 100 µM (inactive)	26.5 µM (inactive)	–
CCCCCCCCCCCCCCCC(=O)OCC1OC(OC)C(NC(=O)N(CCCl)N=O)C(O)C1O (configuration not stated)	29.6 µM (inactive)	9.68 µM (inactive)	7.36 µM (inactive)	31.2 µM (inactive)	18.4 µM (inactive)	13.1 µM	19 µM (inactive)	6.32 µM (inactive)	20.9 µM (inactive)	15.5 µM (inactive)	5.61 µM (inactive)	13.9 µM (inactive)	3.34 µM (inactive)	3.32 µM (inactive)	28.5 µM (inactive)	14.8 µM (inactive)	0.851 µM (active)	22.8 µM (inactive)	8.38 µM (inactive)	19.7 µM (inactive)
CCOC(=O)n1ccc2c(C(=O)OC)c(C(=O)OC)cc(/C(=C/C(=O)OC)C(=O)OC)c21	> 100 µM (inactive)	> 100 µM (inactive)	10.4 µM (inactive)	> 100 µM (inactive)	> 100 µM (inactive)	> 10 µM	> 100 µM (inactive)	32.1 µM (inactive)	> 100 µM (inactive)	> 100 µM (inactive)	> 100 µM (inactive)	> 100 µM (inactive)	> 100 µM (inactive)	> 100 µM (inactive)	> 100 µM (inactive)	> 100 µM (inactive)	79.8 µM (inactive)	> 100 µM (inactive)	> 100 µM (inactive)	> 100 µM (inactive)
CC(O)=NC(Cc1ccc2ccccc2c1)C(O)=NC(Cc1ccc(Cl)cc1)C(O)=NC(Cc1c[nH]c2ccccc12)C(O)=NC(CO)C(O)=NC(Cc1ccc(O)cc1)C(O)=NC(CCCN=C(N)N)C(O)=NC(CC(C)C)C(O)=NC(CCCN=C(N)N)C(=O)N1CCCC1C(O)=NC(C)C(=N)O (configuration not stated)	37.6 µM (inactive)	42.6 µM (inactive)	> 100 µM (inactive)	39.5 µM (inactive)	63.4 µM (inactive)	63 µM	41.1 µM (inactive)	> 100 µM (inactive)	99.5 µM (inactive)	30.1 µM (inactive)	54.7 µM (inactive)	60.3 µM (inactive)	> 100 µM (inactive)	36.6 µM (inactive)	–	48.9 µM (inactive)	> 100 µM (inactive)	30.9 µM (inactive)	31.6 µM (inactive)	32.4 µM (inactive)
CC(C)/C(Cl)=N/OC(=O)Nc1ccc(OC(F)(F)F)cc1	18.6 µM (inactive)	17 µM (inactive)	1.27 µM (inactive)	8.17 µM (inactive)	16.7 µM (inactive)	6.12 µM	16.6 µM (inactive)	2.86 µM (inactive)	2.48 µM (inactive)	11.1 µM (inactive)	16.6 µM (inactive)	17 µM (inactive)	23.2 µM (inactive)	17.3 µM (inactive)	13.3 µM (inactive)	17.7 µM (inactive)	1.94 µM (inactive)	15.9 µM (inactive)	17.3 µM (inactive)	13.7 µM (inactive)
CCOC(=O)NNC(=O)NCc1ccccc1CNC(=O)NNC(=O)OCC	> 100 µM (inactive)	> 100 µM (inactive)	> 100 µM (inactive)	> 100 µM (inactive)	> 100 µM (inactive)	> 100 µM	> 100 µM (inactive)	> 100 µM (inactive)	> 100 µM (inactive)	> 100 µM (inactive)	> 100 µM (inactive)	> 100 µM (inactive)	> 100 µM (inactive)	> 100 µM (inactive)	> 100 µM (inactive)	> 100 µM (inactive)	> 100 µM (inactive)	> 100 µM (inactive)	> 100 µM (inactive)	> 100 µM (inactive)
COC(CN(C(=O)c1ccccc1)C1CCC2(SCCS2)c2[nH]c3ccccc3c21)OC (configuration not stated)	46.6 µM (inactive)	30.7 µM (inactive)	44.2 µM (inactive)	19.6 µM (inactive)	30.5 µM (inactive)	30.6 µM	27.5 µM (inactive)	14.6 µM (inactive)	25.2 µM (inactive)	83.8 µM (inactive)	33.8 µM (inactive)	18.1 µM (inactive)	> 100 µM (inactive)	63.1 µM (inactive)	61.2 µM (inactive)	22.4 µM (inactive)	30.4 µM (inactive)	32.7 µM (inactive)	25.9 µM (inactive)	14.4 µM (inactive)
